Several values for one entry are separate records, joined by “and”; a condition that tells them apart may be missing. Equal values may be shown once.

The source of these data is US7807828B2, “Olanzapine analogs and methods of use thereof” (Hypnion, Inc., priority 2005, dated 2010).

For assay [1], the target named is T1, 5HT2a (hctx) (Homo sapiens, UniProt P28223).
T1 construct: (hctx); from tissue; host or cells: human cortex (my reading of 'hctx')
Description: 5HT2a (hctx) binding assay. To be noted: Table 7B; unit inferred.

The subject of assay [2] is adult, male Wistar rats. In words: Sleep-wakefulness monitoring (SCORE-2000, EEG/EMG) in rats. It is filed as in vivo, rat. To be noted: minutes; for LONGEST UNINTERRUPTED SLEEP BOUT 10 mg/kg / NREM CUMULATION 10 mg/kg: oral bolus at CT-18, 10 mg/kg. Here is the method: Sleep-wakefulness, locomotor activity and body temperature are monitored in male Wistar rats treated with a test compound (i.e., olanzapine analog) initially at a concentration of 10 mg/kg. Higher and lower doses are assayed for select compounds (e.g., as high as 45 mg/kg, and as low as necessary to establish a no-effect dose). Treatments are administered at CT-18, the peak of the activity dominated period (6 hours after lights-off), and produced soporific (sleep-inducing) effects characterized by increased non-REM sleep time, increased sleep continuity, but without evidence of REM sleep inhibition or rebound insomnia.
Sleep-wakefulness, locomotor activity and body temperature were monitored in vivo with various compounds of the invention. Adult, male Wistar rats (250 g at time of surgery, Charles River Laboratories, Wilmington Mass.) were anesthetized (2% isoflourane in medical grade oxygen) and surgically prepared with a cranial implant to permit chronic electro-encephalogram (EEG) and electromyogram (EMG) recording. Body temperature and locomotor activity were monitored via a miniature transmitter (Mini-Mitter, Bend, Oreg.) surgically placed in the abdomen. The cranial implant consisted of stainless steel screws (two frontal (+3.2 AP from bregma, ±2.0 ML) and two occipital (−6.9 AP, ±5.5 ML)) for EEG recording. Two Teflon®-coated stainless steel wires were positioned under the nuchal trapezoid muscles for EMG recording. All leads were soldered to a miniature connector prior to surgery, and gas sterilized in ethylene oxide. The implant assembly was affixed to the skull with dental acrylic. A minimum of three weeks was allowed for surgical recovery.
Each rat was permanently housed in its own individual recording cage located within separate, ventilated compartments of custom-designed stainless steel cabinets. Each cage was enhanced with a filter-top riser and low-torque swivel-commutator. Food and water were available ad libitum. A 24-hr light-dark cycle (12 hours light, 12 hours dark) was maintained throughout the study. Animals were undisturbed for at least 48 hours before and after treatments.
Sleep and wakefulness were determined using “SCORE-2000™” (Hypnion, Worcester, Mass.)—an internet-based sleep-wake and physiological monitoring system. The system monitored amplified EEG (bandpass 1-30 Hz), integrated EMG (bandpass 10-100 Hz), body temperature and non-specific locomotor activity (LMA) via telemetry, and drinking activity, continuously and simultaneously. Arousal states were classified on-line as non-REM (NREM) sleep, REM sleep, wake, or theta-dominated wake every 10 seconds. Total drinking and locomotor activity counts, and body temperature were quantitiated and recorded each minute, using EEG feature extraction and pattern-matching algorithms. […] The classification algorithm used individually-taught EEG-arousal-state templates, plus EMG criteria to differentiate REM sleep from theta-dominated wakefulness, plus behavior-dependent contextual rules (e.g., if the animal was drinking, it is awake). Drinking and locomotor activity intensity (LMA) were recorded every 10 seconds, while body temperature was recorded each minute. Locomotor activity was detected by a telemetry receiver (Mini-Mitter) beneath the cage. Telemetry measures (LMA and body temperature) were not part of the scoring algorithm; thus, sleep-scoring and telemetry data were independent measures.
Compounds were administered at CT-18, the peak of the activity-dominated period, sufficient time was allowed to view the time course of the treatment effect before lights-on (6 hours post-treatment). Compounds were suspended in sterile 0.25% or 0.5% methylcellulose (1-2 ml/kg). Treatments were administered orally as a bolus.
A parallel group study design was employed. […]

The target of assay [3] is T2, H1 (hr) (Homo sapiens, UniProt P35367).
T2 construct: Novascreen, MDS, Cerep (assay providers)
Description: H1 (hr) MDS binding assay. The conditions noted are these: Table 7A; Ki in nM. Here is the method:
(§1) Binding assays were performed using various sleep-inducing agents and derivatives selected from those listed in Table 1 in competitive binding assays with known standards for the H1 histamine receptor, and the M1, M2, and M3 muscarinic receptors, alpha 1 and alpha 2 receptors, D1 and D2 receptors, 5HT2a, 5HT2b, 5HT2c, 5HT2c, and 5HT7 receptors.
(§2) The histamine H1 assays are described in Chang, et al., Heterogeneity of Histamine H1-Receptors: Species Variation in [^3H]Mepyramine Binding of Brain Membranes. Journal of Neurochemistry. 32: 1653-1663 (1979); Martinez-Mir, M. I., Pollard, H., Moreau, J., et al. Three Histamine Receptors (H1, H2, and H3) Visualized in the Brain of Human and Non-Human Primates. Brain Res. 526: 322-327 (1990); Haaksma, E. E. J., Leurs, R. and Timmerman, H. Histamine Receptors: Subclasses and Specific Ligands. Pharmac. Ther. 47: 73-104 (1990). The muscarinic assays are described in Buckley, N. J., Bonner, T. I., Buckley, C. M., and Brann, M. R. Antagonist Binding Properties of Five Cloned Muscarinic Receptors Expressed in CHO-K1 Cells. Mol. Pharmacol. 35: 469-476 (1989). The assays were performed according to the preceding articles, with the following modifications. Chemical reagents in the following were obtained from Sigma, St. Louis, Mo.

Assay [4] has as its target T2, H1 (hr). In words: H1 (hr) Cerep binding assay. To be noted: Table 7A; Ki in nM. How it is done:
as §1, §2

Assay [5] deals with 5HT2b (h) (Homo sapiens, UniProt P41595). Description: 5HT2b (h) binding assay. The conditions noted are these: Table 7B; unit inferred.
The target in assay [6] is 5HT7 (h) (Homo sapiens, UniProt P34969). In words: 5HT7 (h) binding assay. To be noted: Table 7B; unit inferred. How it is done: as §1
In vitro binding assays are used to determine 5HT2a binding. These binding assays measure the ability of benzisoxazole analogs to displace known standards from the 5HT2a, 5HT2b, 5HT2c, and 5HT7. A decrease in the binding of the compounds to the M1-M3 receptors, relative to the binding of the compound to the 5HT2a receptor, is an indication of the greater specificity of the compound for the 5HT2a receptor over the muscarinic receptor. […] 5HT2a binding is determined as described for example in British Journal of Pharmacology (1995) 115, 622-628.

Assay [7] has as its target D3 (Homo sapiens, UniProt P35462). Description: D3 binding. The conditions noted are these: Table 7A, printed in column D2 (h); unit inferred.
Assay [8] has as its target Alpha 1. In words: Alpha 1 binding assay. To be noted: Table 7A; unit inferred. Here is the method: as §1

T1 sequence (P28223 whole entry): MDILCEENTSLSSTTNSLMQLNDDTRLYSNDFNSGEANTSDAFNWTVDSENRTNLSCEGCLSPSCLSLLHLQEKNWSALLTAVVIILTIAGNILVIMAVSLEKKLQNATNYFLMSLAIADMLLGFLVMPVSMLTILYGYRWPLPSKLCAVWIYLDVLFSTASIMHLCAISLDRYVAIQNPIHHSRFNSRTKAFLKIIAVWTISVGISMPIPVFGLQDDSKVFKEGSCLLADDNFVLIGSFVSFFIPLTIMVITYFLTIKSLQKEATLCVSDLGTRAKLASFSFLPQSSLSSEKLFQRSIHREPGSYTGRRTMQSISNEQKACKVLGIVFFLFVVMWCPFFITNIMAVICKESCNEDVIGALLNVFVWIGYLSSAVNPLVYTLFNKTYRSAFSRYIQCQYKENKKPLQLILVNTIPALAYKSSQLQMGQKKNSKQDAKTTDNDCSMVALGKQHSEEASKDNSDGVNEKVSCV
Sequence of 5HT2b (h) (P41595 whole entry): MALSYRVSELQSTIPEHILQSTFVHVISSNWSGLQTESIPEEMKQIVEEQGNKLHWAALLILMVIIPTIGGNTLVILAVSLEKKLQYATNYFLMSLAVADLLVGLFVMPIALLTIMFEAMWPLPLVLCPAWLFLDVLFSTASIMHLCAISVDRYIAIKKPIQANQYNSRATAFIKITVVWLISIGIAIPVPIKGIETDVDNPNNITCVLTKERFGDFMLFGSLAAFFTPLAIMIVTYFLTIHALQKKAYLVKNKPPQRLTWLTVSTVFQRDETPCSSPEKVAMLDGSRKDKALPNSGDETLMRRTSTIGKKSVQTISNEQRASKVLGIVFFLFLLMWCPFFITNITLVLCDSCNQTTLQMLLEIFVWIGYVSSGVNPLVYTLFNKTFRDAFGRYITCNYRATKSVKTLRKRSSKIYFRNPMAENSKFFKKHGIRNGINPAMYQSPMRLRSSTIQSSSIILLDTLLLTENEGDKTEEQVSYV
T2 sequence (P35367 whole entry): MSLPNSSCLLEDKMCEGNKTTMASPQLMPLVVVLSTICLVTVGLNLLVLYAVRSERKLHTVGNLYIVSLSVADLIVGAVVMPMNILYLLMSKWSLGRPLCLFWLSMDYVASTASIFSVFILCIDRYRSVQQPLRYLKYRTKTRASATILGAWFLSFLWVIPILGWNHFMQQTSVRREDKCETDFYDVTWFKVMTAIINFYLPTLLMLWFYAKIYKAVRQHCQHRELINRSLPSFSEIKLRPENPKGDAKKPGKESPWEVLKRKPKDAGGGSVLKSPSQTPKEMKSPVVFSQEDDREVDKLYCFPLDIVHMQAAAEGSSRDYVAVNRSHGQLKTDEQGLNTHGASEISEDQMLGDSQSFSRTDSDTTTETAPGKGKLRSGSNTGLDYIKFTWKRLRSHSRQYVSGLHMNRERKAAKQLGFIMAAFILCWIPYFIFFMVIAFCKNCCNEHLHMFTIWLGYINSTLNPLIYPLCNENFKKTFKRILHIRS
Sequence of 5HT7 (h) (P34969 whole entry): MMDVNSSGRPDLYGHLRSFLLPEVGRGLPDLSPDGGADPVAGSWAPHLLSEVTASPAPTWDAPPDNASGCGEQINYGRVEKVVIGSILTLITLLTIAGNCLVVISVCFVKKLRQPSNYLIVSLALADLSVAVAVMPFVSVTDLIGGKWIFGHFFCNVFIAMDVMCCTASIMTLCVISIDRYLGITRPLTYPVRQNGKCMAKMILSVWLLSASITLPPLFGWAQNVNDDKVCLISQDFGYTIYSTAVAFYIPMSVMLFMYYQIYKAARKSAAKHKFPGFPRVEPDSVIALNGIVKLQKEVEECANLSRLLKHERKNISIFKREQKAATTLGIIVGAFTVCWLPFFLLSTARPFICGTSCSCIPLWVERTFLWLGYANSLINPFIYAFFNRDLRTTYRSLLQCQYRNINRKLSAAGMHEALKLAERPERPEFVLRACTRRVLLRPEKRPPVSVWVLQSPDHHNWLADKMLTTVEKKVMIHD
Sequence of D3 (P35462 whole entry): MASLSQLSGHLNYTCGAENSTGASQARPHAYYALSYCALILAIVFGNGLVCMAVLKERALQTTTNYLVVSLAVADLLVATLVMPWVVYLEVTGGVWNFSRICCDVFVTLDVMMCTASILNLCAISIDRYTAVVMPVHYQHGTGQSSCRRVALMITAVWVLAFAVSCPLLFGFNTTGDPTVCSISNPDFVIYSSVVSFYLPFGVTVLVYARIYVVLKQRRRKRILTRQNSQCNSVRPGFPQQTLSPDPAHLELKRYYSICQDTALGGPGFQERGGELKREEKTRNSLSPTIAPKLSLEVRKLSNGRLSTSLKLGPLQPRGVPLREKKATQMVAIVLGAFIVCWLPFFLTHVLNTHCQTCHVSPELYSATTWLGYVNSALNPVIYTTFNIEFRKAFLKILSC

Regarding `CC(C)c1cc2c(s1)Nc1ccccc1N=C2N1CCN(CC(C)(C)C(=O)O)CC1` [Compound 94], in assay [1], the Ki (as a rule, a dissociation constant, usually derived from enzyme kinetics or from competition with a known ligand) amounted to 73 nM. Also, in assay [2], the “LONGEST UNINTERRUPTED SLEEP BOUT 10 mg/kg” value was 19.9 ± 3.7 min and the “NREM CUMULATION 10 mg/kg” value was 47 ± 6 min.
Turning to `Cc1cc2c(s1)Nc1ccccc1N=C2N1CCN(CC(C)(C)C(=O)O)CC1` [Compound 46], the Ki is 44 nM in assay [3]; 210 nM in assay [4]; 639 nM in assay [1]; 151 nM and 270 nM in assay [5]; 4080 nM in assay [6]. Besides, the “LONGEST UNINTERRUPTED SLEEP BOUT 0.3 mg/kg” value in assay [2] (oral bolus at CT-18, 0.3 mg/kg) is 3.9 min. The “LONGEST UNINTERRUPTED SLEEP BOUT 1 mg/kg” value in assay [2] (oral bolus at CT-18, 1 mg/kg) stood at 11.8 ± 2.7 min. In addition, the “LONGEST UNINTERRUPTED SLEEP BOUT 3 mg/kg” value in assay [2] (oral bolus at CT-18, 3 mg/kg) was 10.8 ± 3.2 min. For the same molecule, the “NREM CUMULATION 3 mg/kg” value in assay [2] (oral bolus at CT-18, 3 mg/kg) was found to be 38 ± 4 min. In addition, the “LONGEST UNINTERRUPTED SLEEP BOUT 10 mg/kg” value in assay [2] worked out at 15.5 ± 4.1 min. Further, the “NREM CUMULATION 10 mg/kg” value in assay [2] came to 42 ± 5 min.
On to `CCc1cc2c(s1)Nc1ccccc1N=C2N1CCN(CC(C)(C)C(=O)O)CC1` [Compound 90], for which the Ki in assay [7] turned out to be 226 nM; in assay [1], 314 nM. The “LONGEST UNINTERRUPTED SLEEP BOUT 3 mg/kg” value in assay [2] (oral bolus at CT-18, 3 mg/kg) amounted to 12.3 ± 4.0 min. Moreover, the “NREM CUMULATION 10 mg/kg” value in assay [2] was 48 ± 8 min.
With `Cc1cc2c(s1)Nc1ccccc1N=C2N1CCN(CC2(C(=O)O)CC2)CC1` [Compound 91], the Ki in assay [8] was found to be 1960 nM; in assay [1], 59.1 nM. Also, the “LONGEST UNINTERRUPTED SLEEP BOUT 10 mg/kg” value in assay [2] was 10.7 ± 3.2 min. Also, in assay [2], the “NREM CUMULATION 10 mg/kg” value came out at 26 ± 4 min.
In assay [8], `Cc1cc2c(s1)Nc1ccccc1N=C2N1CCN(CCC(=O)O)CC1` [Compound 92] yielded a Ki of 2060 nM. In assay [1], the Ki stood at 232 nM. In assay [2], the “LONGEST UNINTERRUPTED SLEEP BOUT 10 mg/kg” value was 3.1 ± 2.5 min and the “NREM CUMULATION 10 mg/kg” value is 10 ± 4 min. Besides, in assay [2] (oral bolus at CT-18, 30 mg/kg), the “LONGEST UNINTERRUPTED SLEEP BOUT 30 mg/kg” value came out at 5.7 ± 1.8 min and the “NREM CUMULATION 30 mg/kg” value stood at 27 ± 4 min.
